Test results from US10947213B1 (Merck Patent GmbH, priority 2015, dated 2021).
Where a name gives a salt, the structure may show the parent alone.

Each compound was assayed against T1, TLR7/NFKb HEK cells (Homo sapiens, UniProt Q9NYK1) (assay: HEK Cell Assay (TLR7/NFKb reporter, Steady-Glo luciferase readout)). Conditions: 30 min compound preincubation, then R*48 agonist for 5 hours, read-out: Potency.
T1 construct: expressed in transfected cells; host or cells: HEK cells (TLR7/NFKb reporter line)
T1 sequence (Q9NYK1 27-1049): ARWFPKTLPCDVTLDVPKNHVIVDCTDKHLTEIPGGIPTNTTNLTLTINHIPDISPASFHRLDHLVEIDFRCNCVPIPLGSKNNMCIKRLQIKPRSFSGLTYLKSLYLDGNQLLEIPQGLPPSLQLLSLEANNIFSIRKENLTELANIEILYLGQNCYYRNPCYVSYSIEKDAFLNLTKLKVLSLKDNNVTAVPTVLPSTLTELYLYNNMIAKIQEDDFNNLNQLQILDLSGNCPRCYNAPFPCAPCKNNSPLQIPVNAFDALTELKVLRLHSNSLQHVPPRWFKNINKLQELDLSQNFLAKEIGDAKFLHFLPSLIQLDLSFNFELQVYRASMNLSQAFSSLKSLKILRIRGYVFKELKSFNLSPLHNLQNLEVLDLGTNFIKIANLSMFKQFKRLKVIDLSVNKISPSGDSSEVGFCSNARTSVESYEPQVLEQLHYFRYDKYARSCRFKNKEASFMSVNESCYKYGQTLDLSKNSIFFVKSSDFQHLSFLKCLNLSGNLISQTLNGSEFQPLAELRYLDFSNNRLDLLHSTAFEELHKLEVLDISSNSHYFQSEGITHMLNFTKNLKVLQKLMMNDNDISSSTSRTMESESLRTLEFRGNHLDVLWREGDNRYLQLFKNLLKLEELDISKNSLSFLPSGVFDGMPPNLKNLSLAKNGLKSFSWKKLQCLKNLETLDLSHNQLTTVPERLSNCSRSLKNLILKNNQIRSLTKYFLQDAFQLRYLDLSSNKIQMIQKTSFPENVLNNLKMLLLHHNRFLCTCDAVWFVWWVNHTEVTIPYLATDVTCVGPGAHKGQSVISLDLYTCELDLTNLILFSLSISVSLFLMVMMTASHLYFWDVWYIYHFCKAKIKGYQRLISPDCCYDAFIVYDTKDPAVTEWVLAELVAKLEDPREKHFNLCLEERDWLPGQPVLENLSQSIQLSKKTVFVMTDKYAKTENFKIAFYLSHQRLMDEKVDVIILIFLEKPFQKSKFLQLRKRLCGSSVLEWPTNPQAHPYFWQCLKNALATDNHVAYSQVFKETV
Format: cell-based
In short: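 Steady-Glo luminescence after 5 h stimulation with R*48 agonist, following 30 min compound preincubation. Assay run in HEK cells carrying a TLR7/NFKb luciferase reporter, plated at 5000 cells/well and grown 24 h at 37° C (10% CO2) before treatment.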

Row | Compound | IC50 [µM]
1 | CCN(CC)CCNC(=O)C1CCN(c2ccnc3ncccc23)CC1 [Compound 1, N-(2-(diethylamino)ethyl)-1-(1,8-naphthyridin-4-yl)piperidine-4-carboxamide] | > 10
2 | c1ccc2c(N3CCC(CNCCN4CCOCC4)CC3)ccnc2c1 [Compound 7, 2-morpholino-N-((1-(quinolin-4-yl)piperidin-4-yl)methyl)ethanamine] | > 10
3 | O=C(CN1CCCCC1)NCC1CCN(c2ccnc3ccccc23)CC1 [Compound 8, 2-(Piperidin-1-yl)-N-((1-(quinolin-4-yl)piperidin-4-yl)methyl)acetamide] | 1 to 10
4 | Cc1cc2c(N3C[C@@H](C)C[C@@H](N)C3)ccnc2n1C [Compound 9, (3R,5S)-1-(1,2-dimethyl-1H-pyrrolo[2,3-b]pyridin-4-yl)-5-methylpiperidin-3-amine] | > 10
5 | C[C@H]1C[C@@H](N)CN(c2ccnc3ccccc23)C1 [Compound 11, (3R,5S)-5-methyl-1-(quinolin-4-yl)piperidin-3-amine] | 1 to 10
6 | Cc1cc2c(N3C[C@@H](C)C[C@@H](NC(=O)CO)C3)ccnc2n1C [Compound 13, N-((3R,5S)-1-(1,2-dimethyl-1H-pyrrolo[2,3-b]pyridin-4-yl)-5-methylpiperidin-3-yl)-2-hydroxyacetamide] | > 10
7 | C[C@H]1C[C@@H](NC(=O)CO)CN(c2ccnc3ccccc23)C1 [Compound 14, 2-hydroxy-N-((3R,5S)-5-methyl-1-(quinolin-4-yl)piperidin-3-yl)acetamide] | > 10
8 | C[C@H]1C[C@@H](NC(=O)CO)CN(c2ccnc3nccnc23)C1 [Compound 15, 2-hydroxy-N-((3R,5S)-5-methyl-1-(pyrido[2,3-b]pyrazin-8-yl)piperidin-3-yl)acetamide] | > 10
9 | CN[C@@H]1C[C@H](C)CN(c2ccnc3nccnc23)C1 [Compound 17, (3R,5S)—N,5-dimethyl-1-(pyrido[2,3-b]pyrazin-8-yl)piperidin-3-amine] | > 10
10 | COCCN[C@@H]1C[C@H](C)CN(c2ccnc3nccnc23)C1 [Compound 18, (3R,5S)—N-(2-methoxyethyl)-5-methyl-1-(pyrido[2,3-b]pyrazin-8-yl)piperidin-3-amine] | > 10
11 | CC(C)[C@H](O)C(=O)N[C@@H]1C[C@H](C)CN(c2ccnc3nccnc23)C1 [Compound 22, (S)-2-hydroxy-3-methyl-N-((3R,5S)-5-methyl-1-(pyrido[2,3-b]pyrazin-8-yl)piperidin-3-yl)butanamide] | 1 to 10
12 | CC(C)[C@@H](O)C(=O)N[C@@H]1C[C@H](C)CN(c2ccnc3nccnc23)C1 [Compound 23, (R)-2-hydroxy-3-methyl-N-((3R,5S)-5-methyl-1-(pyrido[2,3-b]pyrazin-8-yl)piperidin-3-yl)butanamide] | > 10
13 | C[C@H]1C[C@@H](NC(=O)[C@@H](C)N)CN(c2ccnc3nccnc23)C1 [Compound 26, (R)-2-amino-N-((3R,5S)-5-methyl-1-(pyrido[2,3-b]pyrazin-8-yl)piperidin-3-yl)propanamide] | 1 to 10
14 | C[C@H]1C[C@@H](NC(=O)[C@H](C)N)CN(c2ccnc3nccnc23)C1 [Compound 27, (S)-2-amino-N-((3R,5S)-5-methyl-1-(pyrido[2,3-b]pyrazin-8-yl)piperidin-3-yl)propanamide] | 1 to 10
15 | CNCC(=O)N[C@@H]1C[C@H](C)CN(c2ccnc3nccnc23)C1 [Compound 29, N-((3R,5S)-5-methyl-1-(pyrido[2,3-b]pyrazin-8-yl)piperidin-3-yl)-2-(methylamino)acetamide] | > 10
16 | C[C@H]1C[C@@H](NC(=O)C2(N)CC2)CN(c2ccnc3nccnc23)C1 [Compound 30, 1-amino-N-((3R,5S)-5-methyl-1-(pyrido[2,3-b]pyrazin-8-yl)piperidin-3-yl)cyclopropanecarboxamide hydrochloride] | > 10
17 | C[C@H]1C[C@@H](NC(=O)C2(N)CC2)CN(c2ccc(C#N)c3nccnc23)C1 [Compound 31, 1-amino-N-((3R,5S)-1-(8-cyanoquinoxalin-5-yl)-5-methylpiperidin-3-yl)cyclopropanecarboxamide hydrochloride] | 1 to 10

Results, then the compound that gave them:

Row | IC50 [µM] | Compound
18 | 1 to 10 | CN1CCC(CNC(=O)C2CN(c3ccc(C#N)c4ncccc34)CC(F)(F)C2)CC1 (single isomer, unassigned) [Compound 545]
19 | < 1 | CN1CCC(CNC(=O)C2CN(c3ccc(C#N)c4ncccc34)CC(F)(F)C2)CC1 (single isomer, unassigned) [Compound 546]
20 | 1 to 10 | COc1ccc(N2C[C@@H](C)C[C@@H](NC(=O)C(O)C(C)C)C2)c2nccnc12 (stereo in doubt) [Compound 201, (2R)-2-hydroxy-N-[(3R,5S)-1-(8-methoxyquinoxalin-5-yl)-5 methylpiperidin-3-yl]-3-methylbutanamide]
21 | 1 to 10 | CCN(CC)C1CCN(C(=O)C2CCN(c3ccnc4nccnc34)CC2)CC1 [Compound 2, (4-(diethylamino)piperidin-1-yl)(1-(pyrido[2,3-b]pyrazin-8-yl)piperidin-4-yl)methanone]
22 | 1 to 10 | Cn1ncc2c(N3CCC(C(=O)NCCN4CCCCC4)CC3)ncnc21 [Compound 3, 1-(1-methyl-1H-pyrazolo[3,4-d]pyrimidin-4-yl)-N-(2-(piperidin-1-yl)ethyl)piperidine-4-carboxamide]
23 | 1 to 10 | CCN(CC)C1CCN(CC2CCN(c3ccnc4nccnc34)CC2)CC1 [Compound 4, N,N-diethyl-1-((1-(pyrido[2,3-b]pyrazin-8-yl)piperidin-4-yl)methyl)piperidin-4-amine]
24 | 1 to 10 | CCN(CC)C1CCN(CC2CCN(c3ccnc4ccccc34)CC2)CC1 [Compound 5, N,N-diethyl-1-((1-(quinolin-4-yl)piperidin-4-yl)methyl)piperidin-4-amine]
25 | 1 to 10 | c1ccc2c(N3CCC(COCCN4CCCCC4)CC3)ccnc2c1 [Compound 6, 4-(4-[[2-(piperidin-1-yl)ethoxy]methyl]piperidin-1-yl)quinoline]
26 | < 1 | C[C@H]1C[C@@H](N)CN(c2ccnc3nccnc23)C1 [Compound 10, (3R,5S)-5-methyl-1-(pyrido[2,3-b]pyrazin-8-yl)piperidin-3-amine]
27 | < 1 | C[C@H]1C[C@@H](N)CN(c2ccc(C#N)c3nccnc23)C1 [Compound 12, 8-((3R,5S)-3-amino-5-methylpiperidin-1-yl)quinoxaline-5-carbonitrile]
28 | < 1 | CN[C@@H]1C[C@H](C)CN(c2ccc(C#N)c3nccnc23)C1 [Compound 16, 8-((3S,5R)-3-methyl-5-(methylamino)piperidin-1-yl)quinoxaline-5-carbonitrile hydrochloride]
29 | < 1 | COCCN[C@@H]1C[C@H](C)CN(c2ccc(C#N)c3nccnc23)C1 [Compound 19, 8-((3R,5S)-3-(2-methoxyethylamino)-5-methylpiperidin-1-yl)quinoxaline-5-carbonitrile]
30 | < 1 | CC(C)[C@H](O)C(=O)N[C@@H]1C[C@H](C)CN(c2ccc(C#N)c3nccnc23)C1 [Compound 20, (S)—N-((3R,5S)-1-(8-cyanoquinoxalin-5-yl)-5-methylpiperidin-3-yl)-2-hydroxy-3-methylbutanamide]
31 | < 1 | CC(C)[C@@H](O)C(=O)N[C@@H]1C[C@H](C)CN(c2ccc(C#N)c3nccnc23)C1 [Compound 21, (R)—N-((3R,5S)-1-(8-cyanoquinoxalin-5-yl)-5-methylpiperidin-3-yl)-2-hydroxy-3-methylbutanamide]
32 | < 1 | C[C@H]1C[C@@H](NC(=O)[C@@H](C)N)CN(c2ccc(C#N)c3nccnc23)C1 [Compound 24, (R)-2-amino-N-((3R,5S)-1-(8-cyanoquinoxalin-5-yl)-5-methylpiperidin-3-yl)propanamide]
33 | < 1 | C[C@H]1C[C@@H](NC(=O)[C@H](C)N)CN(c2ccc(C#N)c3nccnc23)C1 [Compound 25, (S)-2-amino-N-((3R,5S)-1-(8-cyanoquinoxalin-5-yl)-5-methylpiperidin-3-yl)propanamide]
34 | < 1 | CNCC(=O)N[C@@H]1C[C@H](C)CN(c2ccc(C#N)c3nccnc23)C1 [Compound 28, N-((3R,5S)-1-(8-cyanoquinoxalin-5-yl)-5-methylpiperidin-3-yl)-2-(methylamino)acetamide hydrochloride]
35 | < 1 | C[C@H]1C[C@@H](NC(=O)CN(C)C)CN(c2ccc(C#N)c3nccnc23)C1 [Compound 32, N-((3R,5S)-1-(8-cyanoquinoxalin-5-yl)-5-methylpiperidin-3-yl)-2-(dimethylamino)acetamide]
